Reference: the supplement of paper PMC10949913

Tests used:
Conditions in all cases: 48 h
CU-ACC1 [1] = experiment: AC50 viability; higher = less potent
How it was run: (§1)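 Three adrenocortical carcinoma cell lines were seeded at 500–1,000 cells/well in 5 µL medium in 1,536-well plates. 23 nL of each MIPE 5.0 library compound was added at 11 concentrations. After 48 h (per the protocol name), CellTiter-Glo was added for 15 minutes at room temperature and luminescence was read. Signals were normalised per plate to vehicle and empty-well controls. AC50 and area under the curve came from fitted concentration-response curves, keeping only inhibitory or non-responding curve classes.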

NCI-H295R [2] = experiment: AC50 viability; higher = less potent
How it was run: as §1

CU-ACC1 [3] = experiment: area under concentration-response curve (viability) (AUC (a.u.)); higher = less active
How it was run: as §1

CU-ACC2 = experiment: as above
How it was run: as §1

NCI-H295R [4] = experiment: as above
How it was run: as §1

Compound	AC50 viability (CU-ACC1 [1]) [µM]	AC50 viability (NCI-H295R [2]) [µM]	area under concentration-response curve (CU-ACC1 [3])	area under concentration-response curve (CU-ACC2)	area under concentration-response curve (NCI-H295R [4])
Cc1ccc(NC(=O)c2ccc(CN3CCNCC3)cc2)cc1Nc1nccc(-c2cccnc2)n1	6.61	26.3	496	600	518
OC(c1cc(C(F)(F)F)nc2c(C(F)(F)F)cccc12)C1CCCCN1 (stereo not given)	23.5	20.9	501	619	527
COc1cc(OC)cc(N2CCN(C(=O)Nc3nc4cc(F)ccc4nc3OC)CC2)c1	23.5	16.6	503	556	454
C[C@H]1[C@H](O)O[C@@H]2O[C@@]3(C)CC[C@H]4[C@H](C)CC[C@@H]1[C@@]24OO3	6.61	20.9	494	604	549
CC(=O)Nc1ccc(C(=O)Nc2ccccc2N)cc1	7.42	18.6	413	408	445
Cc1cccc(-c2[nH]c(C(C)(C)C)nc2-c2ccc3c(c2)OCO3)n1	5.25	11.8	426	595	481
NC1=NC=C(C=C1)C2=CC=C3N=CC\4=C(N(C(=O)\C=C4)C5=CC(=CC=C5)C(F)(F)F)C3=C2	0.235	0.0833	314	387	294
CCOc1cc(CC(=O)N[C@@H](CC(C)C)c2ccccc2N2CCCCC2)ccc1C(=O)O	0.0059	5.25	221	240	188
CC(C)n1nc(-c2ccc3oc(N)nc3c2)c2c(N)ncnc21	0.0372	0.166	338	455	404
Nc1n[n+]([O-])c2ccccc2[n+]1[O-]	29.5	20.9	474	617	529
N#Cc1ccc(-c2c(-c3nnc[nH]3)sc(N3CCOCC3)c2C#N)c(F)c1	7.42	4.68	465	568	478
CCc1ccc(C(=O)Nc2cc(CN3CCN(C)CC3)cc(C(F)(F)F)c2)cc1C#Cc1cnc2ccnn2c1	7.42	8.33	453	559	431
O=C1NC(=O)[C@@H](c2c[nH]c3ccccc23)[C@H]1c1cn2c3c(cccc13)CCC2	20.9	0.59	494	611	504
CCCOc1ccc(CCc2nc3cc(-c4c(C)noc4C)ccc3n2CCN2CCOCC2)cc1	14.8	20.9	482	567	479
CCC[S+](=O)([O-])c1nc(NC2CC2)cc(-c2ccc3c(ccn3C3CC(C)(C)NC(C)(C)C3)c2)n1	3.93	3.12	490	580	530
COc1c(N2C[C@@H]3CCCN[C@@H]3C2)c(F)cc2c(=O)c(C(=O)O)cn(C3CC3)c12.Cl.O	0.525	0.118	400	484	399
COc1cc2ncnc(Nc3cccc(Cl)c3)c2cc1OC	13.2	20.9	558	610	562
N=C(N)c1ccc(OCCCCCOc2ccc(C(=N)N)cc2)cc1	13.2	14.8	437	561	453
Fc1ccc(-c2csc3ncnc(NCc4ccc5c(c4)OCO5)c23)cc1	3.32	20.9	390	532	427
CCN(CCO)CCCOc1ccc2c(Nc3cc(CC(=O)Nc4cccc(F)c4)[nH]n3)ncnc2c1	23.5	16.6	390	569	483
O=C(CCCCCCC(=O)Nc1cccnc1)NO	9.34	13.2	489	589	533
CC(C)(C)NC(=O)c1cncn1C1CCN(c2ccc(-c3nnc(C(F)(F)F)o3)cn2)CC1	1.66	7.42	381	539	475
Cc1cc(C)c([S+](=O)([O-])N(CCc2cccc(Br)c2)Cc2ccc(-c3cccc([S+](C)(=O)[O-])c3)cc2)c(C)c1	0.833	7.42	412	417	442
C/C(=N\Nc1nnc2c(n1)[nH]c1c(C)cccc12)c1ccccn1	2.35	9.34	403	533	415
CC(C)C[C@H](NC(=O)[C@H](Cc1ccccc1)NC(=O)c1cnccn1)B(O)O	0.0372	0.0263	290	327	345
Cc1nc(N)ncc1-c1nc(N2CCOCC2)c2sc(C(C)(C)O)cc2n1	8.33	4.68	333	488	475
Cc1cnc(NC(=O)Nc2cc(Br)c(C)cc2OC[C@@H]2CNCCO2)cn1	6.61	4.68	486	613	524
NC(=O)c1ccc2[nH]c(-c3ccc(Oc4ccc(Cl)cc4)cc3)nc2c1	33.2	26.3	450	573	507
Cc1cc(Nc2ncnc3ccc(-c4ccc(CNCC[S+](C)(=O)[O-])o4)cc23)ccc1Oc1ccn2ncnc2c1	23.5	8.33	386	355	392
CNC(=O)c1cc(Oc2ccc(NC(=O)Nc3ccc(Cl)c(C(F)(F)F)c3)c(F)c2)ccn1	37.2	20.9	436	596	545
